Source: patent publication US8633245B2, “PAI-1 inhibitor” (Institute of Medicinal Molecular Design, Inc., priority 2008, dated 2014)

Columns and labels:
[1] = target: T1, recombinant human PAI-1 (Homo sapiens, UniProt P05121); assay: Test Example 1: human PAI-1 inhibitory activity (tPA fluorogenic substrate, pH 7.5 Tris buffer); type: biochemical; conditions: Tris buffer
T1 construct: purchased Molecular Innovations, Inc
Method: 50 mM Tris, 150 mM NaCl, 10 μg/ml BSA, 0.01% Tween80 (SIGMA-ALDRICH Corporation)

[2] = target: T1, recombinant human PAI-1; assay: Test Example 2: human PAI-1 inhibitory activity (tPA fluorogenic substrate, pH 7.4 HEPES buffer); type: biochemical; conditions: human PAI-1
Method: 0.1 M HEPES, 0.1 M NaCl. 1 mM EDTA. 0.1% Polyethylene glycol 8,000 (Hampton Research Corporation),
2 mM Dimethyldecylphoshine oxide [Apo-10] (Fluka Corporation)

[3] = compound concentration 0.1 μM, 0.1 µM
[4] = compound concentration 1 μM, 1 µM

T1 sequence (P05121 24-402): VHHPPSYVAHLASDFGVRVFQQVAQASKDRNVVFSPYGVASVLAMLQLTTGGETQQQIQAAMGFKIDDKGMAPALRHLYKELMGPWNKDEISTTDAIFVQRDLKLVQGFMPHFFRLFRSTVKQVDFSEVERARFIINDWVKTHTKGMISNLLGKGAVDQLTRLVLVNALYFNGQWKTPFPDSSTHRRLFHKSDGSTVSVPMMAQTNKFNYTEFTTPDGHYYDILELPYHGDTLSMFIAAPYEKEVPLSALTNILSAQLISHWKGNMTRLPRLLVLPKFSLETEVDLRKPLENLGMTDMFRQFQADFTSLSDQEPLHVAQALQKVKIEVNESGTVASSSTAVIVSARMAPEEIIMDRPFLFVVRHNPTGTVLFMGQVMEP

Inhibition Rate of PAI-1 Activity (%) ([1]; Compound Concentration 5 μM) | Inhibition Rate of PAI-1 Activity (%) ([1]; Compound Concentration 10 μM) | Inhibition Rate of PAI-1 Activity (%) ([1]; Compound Concentration 25 μM) | SMILES | other results
29 | 66 | 94 | CCCCc1ccc(-c2ccc(OCc3ccc(C(C)(C)C)cc3)c(CCC(=O)O)c2)cc1 [Compound 43] | –
16 | 25 | 21 | CSc1ccc(-c2ccc(OCc3ccc(C(C)(C)C)cc3)c(/C=C/C(=O)O)c2)cc1 [Compound 44] | –
22 | 47 | 91 | CC(C)(C)c1ccc(-c2ccc(OCc3ccccc3)c(/C=C/C(=O)O)c2)cc1 [Compound 47] | –

Continued, molecule first:

SMILES | Inhibition Rate of PAI-1 Activity (%) ([1]; Compound Concentration 5 μM) | Inhibition Rate of PAI-1 Activity (%) ([1]; Compound Concentration 10 μM) | Inhibition Rate of PAI-1 Activity (%) ([1]; Compound Concentration 25 μM) | other results
O=C(O)Cc1cc(-c2ccc(OC(F)(F)F)cc2)ccc1OCc1ccccc1 [Compound 1] | 18 | 31 | – | –
O=C(O)CCc1cc(-c2ccc(OC(F)(F)F)cc2)ccc1OCc1ccccc1 [Compound 3] | 35 | 68 | – | –
CC(C)(C)c1ccc(COc2ccc(-c3ccc(OC(F)(F)F)cc3)cc2C=CC(=O)O)cc1 [Compound 4] | 84 | 78 | – | –
CC(C)(C)c1ccc(COc2ccc(-c3ccc(OC(F)(F)F)cc3)cc2NC(=O)C(=O)[O-])cc1.[Na+] [Compound 6] | 83 | 94 | – | –
CC(C)(C)c1ccc(COc2ccc(-c3ccc4c(c3)OCO4)cc2CC(=O)O)cc1 [Compound 10] | 32 | 65 | >99 | –
Cc1cc(C)cc(COc2ccc(-c3ccc(OC(F)(F)F)cc3)cc2CC(=O)O)c1 [Compound 11] | 41 | 84 | 99 | –
CC(C)(C)c1ccc(Oc2ccc(-c3ccc(OC(F)(F)F)cc3)cc2C=CC(=O)O)cc1 [Compound 12] | 92 | 94 | – | –
O=C(O)CCc1cc(-c2ccc(OC(F)(F)F)cc2)ccc1Oc1ccc(C(=O)O)cc1 [Compound 14] | – | 3 | – | –
O=C(O)C=Cc1cc(-c2ccc(OC(F)(F)F)cc2)ccc1Oc1ccc(OC(F)(F)F)cc1 [Compound 15] | 23 | 47 | 94 | –
O=C(O)CCc1cc(-c2ccc(OC(F)(F)F)cc2)ccc1Oc1ccc(OC(F)(F)F)cc1 [Compound 16] | 23 | 46 | 96 | –
O=C(O)CCc1cc(-c2ccc(OC(F)(F)F)cc2)ccc1OCc1ccc(F)cc1 [Compound 20] | – | 10 | 53 | –
O=C(O)CCc1cc(-c2ccc(OC(F)(F)F)cc2)ccc1OCc1ccccc1C(F)(F)F [Compound 21] | – | 11 | 70 | –
O=C(O)CCc1cc(-c2ccc(OC(F)(F)F)cc2)ccc1OCc1ccc(C(F)(F)F)cc1 [Compound 22] | – | 13 | 80 | –
COc1ccccc1COc1ccc(-c2ccc(OC(F)(F)F)cc2)cc1CCC(=O)O [Compound 23] | – | 7 | 47 | –
O=C(O)/C=C/c1cc(-c2ccc(OC(F)(F)F)cc2)ccc1OCc1ccccc1 [Compound 24] | – | 11 | 64 | –
CC(C)(C)c1ccc(COc2ccc(-c3ccc(OC(F)(F)F)cc3)cc2/C=C/C(=O)O)cc1 [Compound 25] | 96 | 97 | 93 | –
CC(C)(C)c1ccc(COc2ccc(-c3cccc(C(=O)O)c3)cc2CCC(=O)O)cc1 [Compound 26] | – | 9 | 25 | –
O=C(O)CCc1cc(-c2ccc(OC(F)(F)F)cc2)ccc1OCc1ccc(Cl)cc1Cl [Compound 27] | 5 | 29 | 92 | –
O=C(O)CCc1cc(-c2ccc(OC(F)(F)F)cc2)ccc1OCc1ccc(-c2ccccc2)cc1 [Compound 29] | 21 | 56 | 88 | –
CC(C)(C)c1ccc(COc2ccc(-c3ccccc3)cc2/C=C/C(=O)O)cc1 [Compound 31] | 21 | 49 | 89 | –

SMILES | Inhibition Rate of PAI-1 Activity (%) ([1]; Compound Concentration 5 μM) | Inhibition Rate of PAI-1 Activity (%) ([1]; Compound Concentration 10 μM) | Inhibition Rate of PAI-1 Activity (%) ([1]; Compound Concentration 25 μM) | other results
CC(C)(C)c1ccc(COc2ccc(-c3ccccc3)cc2CCC(=O)O)cc1 [Compound 32] | 22 | 47 | 97 | –
CC(C)(C)c1ccc(COc2ccc(-c3ccc(F)cc3)cc2/C=C/C(=O)O)cc1 [Compound 33] | 23 | 53 | 96 | –
CC(C)(C)c1ccc(COc2ccc(-c3ccc(F)cc3)cc2CCC(=O)O)cc1 [Compound 34] | 24 | 53 | 99 | –
CC(C)(C)c1ccc(COc2ccc(-c3ccc(C(F)(F)F)cc3)cc2/C=C/C(=O)O)cc1 [Compound 35] | 28 | 57 | 95 | –
CC(C)(C)c1ccc(COc2ccc(-c3ccc(C(F)(F)F)cc3)cc2CCC(=O)O)cc1 [Compound 36] | 23 | 60 | 99 | –
COc1ccc(-c2ccc(OCc3ccc(C(C)(C)C)cc3)c(/C=C/C(=O)O)c2)cc1 [Compound 37] | 23 | 47 | 84 | –
COc1ccc(-c2ccc(OCc3ccc(C(C)(C)C)cc3)c(CCC(=O)O)c2)cc1 [Compound 38] | 14 | 34 | 93 | –
CC(C)(C)c1ccc(COc2ccc(-c3ccc(C(C)(C)C)cc3)cc2/C=C/C(=O)O)cc1 [Compound 39] | 25 | 56 | 94 | –
CC(C)(C)c1ccc(COc2ccc(-c3ccc(C(C)(C)C)cc3)cc2CCC(=O)O)cc1 [Compound 40] | 22 | 66 | >99 | –
O=C(O)C(=O)N(CCCCc1ccccc1)c1ccc(-c2ccc3ccccc3c2)cc1 [Compound 671] | – | – | – | Inhibition Rate of PAI-1 Activity (%) ([2]; compound concentration 0.1 μM): 26%; Inhibition Rate of PAI-1 Activity (%) ([2]; compound concentration 0.3 μM): 12%; Inhibition Rate of PAI-1 Activity (%) ([2]; compound concentration 1 μM): 23%; Inhibition Rate of PAI-1 Activity (%) ([2]; compound concentration 3 μM): 92%
CCCCCOc1ccc(-c2cc(C)cc(C)c2)cc1N(CCCCc1ccccc1)C(=O)C(=O)O [Compound 672] | – | – | – | Inhibition Rate of PAI-1 Activity (%) ([2]; compound concentration 0.1 μM): 3%; Inhibition Rate of PAI-1 Activity (%) ([2]; compound concentration 0.3 μM): 15%; Inhibition Rate of PAI-1 Activity (%) ([2]; compound concentration 1 μM): 92%; Inhibition Rate of PAI-1 Activity (%) ([2]; compound concentration 3 μM): >99%
O=C(O)C(=O)N(CCCCc1ccccc1)c1ccc(N2CCCC2)c(-c2ccc(OC(F)(F)F)cc2)c1 [Compound 673] | – | – | – | Inhibition Rate of PAI-1 Activity (%) ([2]; compound concentration 0.1 μM): 0%; Inhibition Rate of PAI-1 Activity (%) ([2]; compound concentration 0.3 μM): 15%; Inhibition Rate of PAI-1 Activity (%) ([2]; compound concentration 1 μM): >99%; Inhibition Rate of PAI-1 Activity (%) ([2]; compound concentration 3 μM): >99%
O=C(O)C(=O)N(CCCCc1ccccc1)c1ccc(N2CCCCCC2)c(-c2ccc(OC(F)(F)F)cc2)c1 [Compound 674] | – | – | – | Inhibition Rate of PAI-1 Activity (%) ([2]; compound concentration 0.1 μM): 5%; Inhibition Rate of PAI-1 Activity (%) ([2]; compound concentration 0.3 μM): 55%; Inhibition Rate of PAI-1 Activity (%) ([2]; compound concentration 1 μM): >99%; Inhibition Rate of PAI-1 Activity (%) ([2]; compound concentration 3 μM): 98%
O=C(O)C(=O)N(CCCCc1ccccc1)c1ccc(N2CCSCC2)c(-c2ccc(OC(F)(F)F)cc2)c1 [Compound 675] | – | – | – | Inhibition Rate of PAI-1 Activity (%) ([2]; compound concentration 0.1 μM): 10%; Inhibition Rate of PAI-1 Activity (%) ([2]; compound concentration 0.3 μM): 14%; Inhibition Rate of PAI-1 Activity (%) ([2]; compound concentration 1 μM): 95%; Inhibition Rate of PAI-1 Activity (%) ([2]; compound concentration 3 μM): >99%
O=C(O)C(=O)N(CCCCc1ccccc1)c1cc(-c2ccc(OC(F)(F)F)cc2)ccc1OCCCCCO [Compound 676] | – | – | – | Inhibition Rate of PAI-1 Activity (%) ([2]; compound concentration 0.1 μM): 7%; Inhibition Rate of PAI-1 Activity (%) ([2]; compound concentration 0.3 μM): 4%; Inhibition Rate of PAI-1 Activity (%) ([2]; compound concentration 1 μM): 60%; Inhibition Rate of PAI-1 Activity (%) ([2]; compound concentration 3 μM): >99%
CCCCCOc1ccc(-c2ccc(C)cc2)cc1N(CCCCc1ccccc1)C(=O)C(=O)O [Compound 677] | – | – | – | Inhibition Rate of PAI-1 Activity (%) ([2]; compound concentration 0.1 μM): 19%; Inhibition Rate of PAI-1 Activity (%) ([2]; compound concentration 0.3 μM): 17%; Inhibition Rate of PAI-1 Activity (%) ([2]; compound concentration 1 μM): 93%; Inhibition Rate of PAI-1 Activity (%) ([2]; compound concentration 3 μM): 98%
CCCCCOc1ccc(-c2ccc(C(C)C)cc2)cc1N(CCCCc1ccccc1)C(=O)C(=O)O [Compound 678] | – | – | – | Inhibition Rate of PAI-1 Activity (%) ([2]; compound concentration 0.1 μM): 19%; Inhibition Rate of PAI-1 Activity (%) ([2]; compound concentration 0.3 μM): 33%; Inhibition Rate of PAI-1 Activity (%) ([2]; compound concentration 1 μM): 97%; Inhibition Rate of PAI-1 Activity (%) ([2]; compound concentration 3 μM): 94%
CC(C)(C)C1CCC(CN(C(=O)C(=O)O)c2ccc(-c3ccc(OC(F)(F)F)cc3)cc2)CC1 (stereo not drawn) [Compound 679] | – | – | – | Inhibition Rate of PAI-1 Activity (%) [2, 3]: 6%; Inhibition Rate of PAI-1 Activity (%) ([2]; compound concentration 0.3 μM): 9%; Inhibition Rate of PAI-1 Activity (%) [2, 4]: 84%; Inhibition Rate of PAI-1 Activity (%) ([2]; compound concentration 3 μM): >99%
CC(C)(C)C1CCC(CN(C(=O)C(=O)O)c2ccc(-c3ccc(OC(F)(F)F)cc3)cc2)CC1 (stereo not drawn) [Compound 680] | – | – | – | Inhibition Rate of PAI-1 Activity (%) [2, 3]: 7%; Inhibition Rate of PAI-1 Activity (%) ([2]; compound concentration 0.3 μM): 9%; Inhibition Rate of PAI-1 Activity (%) [2, 4]: 77%; Inhibition Rate of PAI-1 Activity (%) ([2]; compound concentration 3 μM): >99%
